Test results taken from article PMC8387997 (ACS Omega, 2021).
“Also recorded” adds a separate entry of the source.

Key:
PB1(2) = PB1(2) (Homo sapiens, UniProt Q86U86); assay: bromoSCAN; format: binding
PB1(5) = PB1(5) (Homo sapiens, UniProt Q86U86); assay: bromoSCAN; format: binding; settings: for selectivity for PB1(5) over SMARCA2B: from bromoSCAN KD values
SMARCA2B = SMARCA2B (Homo sapiens, UniProt P51531); assay: bromoSCAN; format: binding
BRD9 = BRD9 versus other bromodomains; cited from earlier work
[1] = tested on: panel of 32 bromodomains, including BET bromodomains; assay: bromoMAX panel screen, Eurofins; format: binding; settings: screened at 10 μM against 32 bromodomains

Sequence of PB1(2) (Q86U86 177-287 limits assumed): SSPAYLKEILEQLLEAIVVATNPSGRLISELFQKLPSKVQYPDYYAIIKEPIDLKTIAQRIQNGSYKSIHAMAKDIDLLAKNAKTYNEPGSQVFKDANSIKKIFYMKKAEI
Sequence of PB1(5) (Q86U86 653-763 limits assumed): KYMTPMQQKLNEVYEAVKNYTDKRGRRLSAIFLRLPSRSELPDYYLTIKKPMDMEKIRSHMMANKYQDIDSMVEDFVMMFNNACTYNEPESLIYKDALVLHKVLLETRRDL
Sequence of SMARCA2B (P51531 1-1572 isoform P51531-2): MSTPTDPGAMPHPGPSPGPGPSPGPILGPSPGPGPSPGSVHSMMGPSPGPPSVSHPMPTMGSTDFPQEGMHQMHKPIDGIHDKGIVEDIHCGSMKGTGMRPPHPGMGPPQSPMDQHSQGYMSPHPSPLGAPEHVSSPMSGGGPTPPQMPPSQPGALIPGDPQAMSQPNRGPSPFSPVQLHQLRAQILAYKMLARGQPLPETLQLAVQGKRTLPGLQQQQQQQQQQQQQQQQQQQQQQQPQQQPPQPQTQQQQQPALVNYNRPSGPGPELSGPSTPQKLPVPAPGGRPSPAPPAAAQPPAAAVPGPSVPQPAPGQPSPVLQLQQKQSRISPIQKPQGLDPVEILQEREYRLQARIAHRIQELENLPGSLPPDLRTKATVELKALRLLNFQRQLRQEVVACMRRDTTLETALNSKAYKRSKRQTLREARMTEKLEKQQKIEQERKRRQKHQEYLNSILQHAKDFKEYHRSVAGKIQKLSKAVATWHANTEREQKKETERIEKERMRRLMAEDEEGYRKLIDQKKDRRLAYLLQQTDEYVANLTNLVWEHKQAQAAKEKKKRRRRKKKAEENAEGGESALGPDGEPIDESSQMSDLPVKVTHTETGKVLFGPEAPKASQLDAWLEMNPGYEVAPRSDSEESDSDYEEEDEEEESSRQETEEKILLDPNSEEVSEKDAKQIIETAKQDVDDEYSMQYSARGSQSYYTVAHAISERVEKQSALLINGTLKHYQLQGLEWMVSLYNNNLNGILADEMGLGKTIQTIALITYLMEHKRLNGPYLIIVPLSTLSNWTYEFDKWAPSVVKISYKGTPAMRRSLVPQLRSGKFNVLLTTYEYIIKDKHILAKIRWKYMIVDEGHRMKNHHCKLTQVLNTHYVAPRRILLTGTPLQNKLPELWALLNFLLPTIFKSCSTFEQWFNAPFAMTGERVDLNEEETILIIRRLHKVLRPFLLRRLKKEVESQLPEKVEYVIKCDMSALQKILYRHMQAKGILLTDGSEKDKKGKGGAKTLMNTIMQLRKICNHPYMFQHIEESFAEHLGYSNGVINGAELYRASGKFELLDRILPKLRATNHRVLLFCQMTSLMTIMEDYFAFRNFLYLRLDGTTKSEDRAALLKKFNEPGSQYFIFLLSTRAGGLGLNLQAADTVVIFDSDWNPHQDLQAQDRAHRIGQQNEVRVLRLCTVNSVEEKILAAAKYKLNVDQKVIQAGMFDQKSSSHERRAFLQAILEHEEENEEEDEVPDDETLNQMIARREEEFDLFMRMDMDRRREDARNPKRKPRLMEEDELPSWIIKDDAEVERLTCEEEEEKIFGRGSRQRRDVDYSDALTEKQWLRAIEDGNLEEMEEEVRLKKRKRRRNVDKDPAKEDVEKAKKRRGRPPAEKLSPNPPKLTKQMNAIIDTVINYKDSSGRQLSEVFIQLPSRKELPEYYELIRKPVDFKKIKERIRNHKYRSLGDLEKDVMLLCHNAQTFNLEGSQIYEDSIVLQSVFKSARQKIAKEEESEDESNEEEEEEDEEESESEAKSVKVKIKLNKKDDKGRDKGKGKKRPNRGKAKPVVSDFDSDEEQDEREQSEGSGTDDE

Kd (PB1(2))	Kd (PB1(5))	selectivity for PB1(5) over SMARCA2B (PB1(5))	Kd (SMARCA2B)	selectivity for PB1(2) over SMARCA2B (PB1(2); from bromoSCAN KD values)	SMILES	selectivity over a panel of other bromodomains (BRD9)	binding profile in bromoMAX panel [1]
5400 nM	1100 nM	~24 fold	26000 nM	–	CCC(/C=C1\CCCn2c1nc(=O)c1c(Cl)cccc12)CC [Compound 21, (E)-7-Chloro-4-(2-ethylbutylidene)-1,2,3,4-tetrahydro-6H-pyrido[1,2-a]quinazolin-6-one]	–	–
–	–	–	–	–	CCn1cc(-c2cccc(C(F)(F)F)c2)c2sc(C(=N)NC3CCS(=O)(=O)CC3)cc2c1=O [I-BRD9]	more than 70 fold	–
110 nM	61 nM	~34 fold	2100 nM	~19 fold	CCC(CC)C1CC12CCn1c2nc(=O)c2c(Cl)cccc21 (centres unmarked) [LM146, 6′-Chloro-2-(pentan-3-yl)-1′,2′-dihydro-5′H-spiro[cyclopropane-1,3′-pyrrolo[1,2-a]quinazolin]-5′-one]	–	does not interact with bromodomains outside of sub-family VIII; also recorded: only binds to bromodomains within the sub-family VIII; also recorded: no binding to any bromodomains outside the sub-family VIII
